# Measured values taken from patent publication US20040186022A1, “Enhanced herbicides” (priority 1999, published 2004).
# Several values for one entry are separate records, joined by “and”; a condition that tells them apart may be missing. Equal entries are not always repeated.
# Key:
# [1] = system: soybeans; assay: Synergy comparisons of various organic acids with caprylic acid, testing soybeans; type: in vivo; settings: 3 days after a single foliar application, average of 2 sites, soybean Stine 2250; for Overall Effect: 5 equals profound desiccation
# Description: (§1) The herbicides were applied in the “spray to drip” amount or at a calibrated 20-60 gallons/acre. “Spray to drip” is an uncalibrated application of fluid to foliage, where sufficient spray volume is used to sufficiently saturate the foliage surface until excess fluid begins to drip from the foliage.
# [2] = Measurement of pH values for test desiccants (Example 55); type: physicochemical
# [3] = system: plants; assay: Herbicidal activity: comparison of caprylic, pelargonic and an equimolar mixture of caprylic and pelargonic acids; type: in vivo; settings: for Injury ratings based on 2 independent evaluations, 40 G/acre: 40 G/acre: chickweed, lambsquarter and green foxtail; for Injury ratings based on 2 independent evaluations, 40 G/acre / Injury ratings based on 2 independent evaluations, 60 G/acre: redroot pigweed, each pot rated 1 to 5; for Injury ratings based on 2 independent evaluations, 60 G/acre: 60 G/acre: chickweed, lambsquarter, green foxtail, crabgrass and wheat; for Average rating per pot: rating 1 to 5, 5 = complete desiccation of all plants
# Description: The herbicides were applied in the “spray to drip” amount or at a calibrated 20-60 gallons/acre. “Spray to drip” is an uncalibrated application of fluid to foliage, where sufficient spray volume is used to sufficiently saturate the foliage surface until excess fluid begins to drip from the foliage. In general, about 5 to 200 gallons/acre, preferably 20-100 gallons/acre can be effective.
# [4] = system: chickweed, redtop, velvetleaf, crabgrass and green foxtail; assay: Enhancement of herbicidal activity of caprylic/capric acids (c/c) using selected compounds at equimolar amounts; type: in vivo; set-up: Relative injury ratings, Day #4 / Relative injury ratings, Day #5: scale not given here; settings: for Relative injury ratings, Day #2: Day 2 after treatment, 40 G/acre, 8 pots, rating 1-5 per pot, […] Emsorb 6900, […] mineral oil; for Relative injury ratings, Day #4: Day 4 after treatment; for Relative injury ratings, Day #5: Day 5 after treatment; for Average rating per pot: scale 1-5
# Description: as §1
# [5] = system: plants; assay: Synergistic relationship between succinic acid and caprylic/capric acids C/C, herbicidal activity; type: in vivo
# Description: as §1
# [6] = system: soybeans; assay: Synergistic relationships between succinic acid and caprylic acid at different application rates, testing soybeans; type: in vivo; settings: 2 days after a single foliar application, average of 2 sites, soybean Stine 2250; for Overall Effect: 5 equals profound desiccation
# Description: as §1
# [7] = system: Dry Beans; assay: Synergistic relationship between succinic or citric acid and caprylic acid, testing dry beans; type: in vivo; settings: 3 days after single foliar application, dry bean Vista; for Green Foliage, Overall Effect / Yellow Foliage, Overall Effect: 5 equals profound desiccation
# Description: as §1
# [8] = system: young potato plants; assay: Effects of desiccants and desiccant combinations with other compounds on young potato plants; type: in vivo; set-up: All evaluations (total score): scale not given here
# Description: as §1
# [9] = system: navy dry beans (navy Vista); assay: Synergistic interactions of succinic acid and di-ammonium succinate with herbicidal compounds, navy dry beans; type: in vivo, dry bean (navy); settings: for Injury rating, average per plot: scale 1-5
# Description: as §1
# [10] = system: black beans (dry bean variety T39); assay: Synergistic interactions of succinic acid and di-ammonium succinate with other herbicidal compounds, dry beans (black); type: in vivo; settings: for Injury rating, average per plot: scale 1-5
# Description: as §1
# [11] = system: 60 G/a: velvetleaf, black nightshade, redroot pigweed, foxtail and snapbeans; spray to drip: black nightshade, velvetleaf, foxtail and snapbeans; assay: Efficacy of 1.5% succinic acid with oleic, caprylic or pelargonic acid in an emulsification system (Emsorb 6900); type: in vivo; set-up: Injury rating, total score for 2 evaluation, Spray to drip / Injury rating, total score for 2 evaluation, Total Rating: scale not given here
# Description: as §1
# [12] = system: snapbean and potato plants; assay: Enhancement of Scythe's herbicidal activity by selected compounds; type: in vivo; set-up: Totals, all evaluations, Beans / Totals, all evaluations, Potatoes / Totals, all evaluations, All / evaluation, 2 days, beans / evaluation, 2 days, potatoes / evaluation, 11 days, beans / evaluation, 11 days, potatoes / evaluation, 15 days, beans / evaluation, 15 days, potatoes: scale not given here
# Description: as §1
# [13] = system: 40 G/a: crab grass, pigweed, chick weed and foxtail; 60 G/a: pigweed, Kentucky bluegrass, foxtail, crab grass and barnyard grass; spray to drip: Kentucky …; assay: Herbicidal activities: synergy between succinic acid and pelargonic acid; type: in vivo; set-up: Total injury ratings, 60 G/a / Total injury ratings, Spray to drip / Total injury ratings, Total: scale not given here
# Description: as §1
# [14] = Day 1, one application at 40 G/acre, treatments 1-4, 9-11 in Emsorb 6900/mineral oil/Hasten, 5-8, 12-14 in 0.3% Sylgard 309
# [15] = Day 2, one application at 40 G/acre, treatments 1-4, 9-11 in Emsorb 6900/mineral oil/Hasten, 5-8, 12-14 in 0.3% Sylgard 309
smiles,measurement,setting,value
O=C(O)CC(O)C(=O)O [L-Malic Acid (0.5%)],Foliage Affected (%),[1],0%
same,Overall Effect,[1],0
same,pH Value,[2],1.69
CCCCCCCCC(=O)O [4.5% pelargonic],"Injury ratings based on 2 independent evaluations, 40 G/acre",[3],45.1
same,"Injury ratings based on 2 independent evaluations, 60 G/acre",[3],53.9
same,Average rating per pot,[3],4.51
"N.N.O=S(=O)(O)O [ammonium sulfate (1.12%), ammonium sulfate]","Relative injury ratings, Day #2",[4],0
same,"Relative injury ratings, Day #4",[4],0
same,"Relative injury ratings, Day #5",[4],0
same,Average rating per pot,[4],0
O=C([O-])c1ccccc1O.[Na+] [0.5% sodium salicylate],"Injury ratings, Total",[5]; 40 G/a + 60 G/a,1.5
same,"Injury ratings based on 2 independent evaluations, 40 G/a","[5]; 40 G/acre: Canadian thistle, velvet leaf, Johnson grass and giant foxtail, each pot rated 1 to 5",1
same,"Injury ratings based on 2 independent evaluations, 60 G/a","[5]; 60 G/acre: velvetleaf, Johnson grass and giant foxtail, each pot rated 1 to 5",0.5
same,Average rating per pot,"[5]; rating 1 to 5, 5 = complete desiccation of all plants",0.04
CCCCCCCC(=O)O [Caprylic Acid (0.2%)],Foliage Affected (%),[6],1.25%
same,Overall Effect,[6],0.5
O=C(O)CCC(=O)O [Succinic Acid (0.5%)],"Green Foliage, Foliage Affected (%)",[7],0%
same,"Yellow Foliage, Foliage Affected (%)",[7],0%
same,"Green Foliage, Overall Effect",[7],0
same,"Yellow Foliage, Overall Effect",[7],0
same,Foliage Affected (%),[1],0%
same,Overall Effect,[1],0
same,pH Value,[2],1.94
O=C(O)CC(O)(CC(=O)O)C(=O)O [CitricAcid (0.5%)],Foliage Affected (%),[1],0%
same,Overall Effect,[1],0
O=C(O)CC(O)(CC(=O)O)C(=O)O [Citric Acid (0.5%)],"Green Foliage, Foliage Affected (%)",[7],0%
same,"Yellow Foliage, Foliage Affected (%)",[7],0%
same,"Green Foliage, Overall Effect",[7],0
same,"Yellow Foliage, Overall Effect",[7],0
same,pH Value,[2],1.64
C[C@H](O)C(=O)O [L-Lactic Acid (1.0%)],Foliage Affected (%),[6],1.25%
same,Overall Effect,[6],0.5
CCCCCCCC(=O)O [Caprylic Acid (0.5%)],"Green Foliage, Foliage Affected (%)",[7],10-15%
same,"Yellow Foliage, Foliage Affected (%)",[7],70%
same,"Green Foliage, Overall Effect",[7],2.5
same,"Yellow Foliage, Overall Effect",[7],2
same,Foliage Affected (%),[6],9%
same,Overall Effect,[6],2.25
same,Foliage Affected (%),[1],5%
same,Overall Effect,[1],1.5
same,pH Value,[2],3.55 and 3.30
O=C([O-])c1ccccc1O.[Na+] [Na Salicylate (0.5%)],"Green Foliage, Foliage Affected (%)",[7],5-10%
same,"Yellow Foliage, Foliage Affected (%)",[7],30%
same,"Green Foliage, Overall Effect",[7],2
same,"Yellow Foliage, Overall Effect",[7],1
CCCCCCCCC(=O)O [3.375% pelargonic],"Injury ratings based on 2 independent evaluations, 40 G/acre",[3],43
same,"Injury ratings based on 2 independent evaluations, 60 G/acre",[3],53.6
same,Average rating per pot,[3],4.41
CCCCCCCC(=O)O [1% caprylic],"Injury ratings of treated plants, day 1","[8]; 1 day after application, 6 = complete desiccation",2
same,"Injury ratings of treated plants, day 3","[8]; 3 days after application, 6 = complete desiccation",3
same,"Injury ratings of treated plants, day 6","[8]; 6 days after application, 6 = complete desiccation",2
same,"Injury ratings of treated plants, day 17","[8]; 17 days after application, 6 = complete desiccation",2.5
same,"Injury ratings of treated plants, day 22","[8]; 22 days after application, 6 = complete desiccation",3
same,"Injury ratings of treated plants, day 27","[8]; 27 days after application, 6 = complete desiccation",3
same,"Injury ratings of treated plants, […]","[8]; […] after application, 6 = complete desiccation",2
same,All evaluations (total score),[8]; total of all evaluation times,17.5
"N.N.O=C(O)C(O)C(O)C(=O)O (centres unmarked) [ammonium tartrate (1.42%), ammonium tartrate]","Relative injury ratings, Day #2",[4],0
same,"Relative injury ratings, Day #4",[4],0
same,"Relative injury ratings, Day #5",[4],0
same,Average rating per pot,[4],0
O=C([O-])c1ccccc1O.[Na+] [Na Salicylate (2%)],"Green Foliage, Foliage Affected (%)",[7],90%
same,"Yellow Foliage, Foliage Affected (%)",[7],>90%
same,"Green Foliage, Overall Effect",[7],5
same,"Yellow Foliage, Overall Effect",[7],5
"N.N.O=C(O)CCC(=O)O [2.52% di-ammonium succinate, di-ammonium succinate]","Injury rating, average per plot",[9]; [14],0
same,"Injury rating, average per plot",[9]; Day 2,0
same,"Injury rating, average per plot",[9]; Day 3,0
same,"Injury rating, average per plot",[9]; Day 4,0
same,"% desiccation (Day 12), foliage",[9],0%
same,"% desiccation (Day 12), pods",[9],0%
same,"% desiccation (Day 12), vines",[9],0%
same,"Injury rating, average per plot",[9]; Day 12,0
same,"Injury rating, average per plot",[10]; [15],0
same,"% desiccation (Day 12), foliage",[10],0%
same,"% desiccation (Day 12), pods",[10],0%
same,"% desiccation (Day 12), vines",[10],0%
same,"Injury rating, average per plot",[10]; Day 12,0
"CCCCCCCC/C=C\CCCCCCCC(=O)O [3% oleic, oleic acid]","Injury rating, total score for 2 evaluation, Total Rating",[11]; 60 G/a plus spray to drip,33.6
same,"Injury rating, total score for 2 evaluation, 60 G/a","[11]; 60 G/a, rating 1-5 per pot, 1% Emsorb, 0.3% Hasten",24.2
same,Average rating per pot,[11]; scale 1-5,1.2
same,"Injury rating, total score for 2 evaluation, Spray to drip",[11]; spray to drip,9.4
"O=C([O-])c1ccccc1O.[Na+] [3% sodium salicylate, sodium salicylate]","Injury rating, average per plot",[9]; [14],3.8
same,"Injury rating, average per plot",[9]; Day 2,4.13
same,"Injury rating, average per plot",[9]; Day 3,4.57
same,"Injury rating, average per plot",[9]; Day 4,4.5
same,"% desiccation (Day 12), foliage",[9],92%
same,"% desiccation (Day 12), pods",[9],90%
same,"% desiccation (Day 12), vines",[9],70%
same,"Injury rating, average per plot",[9]; Day 12,4.7
same,"Injury rating, average per plot",[10]; [15],4
same,"% desiccation (Day 12), foliage",[10],95%
same,"% desiccation (Day 12), pods",[10],90%
same,"% desiccation (Day 12), vines",[10],90%
same,"Injury rating, average per plot",[10]; Day 12,4.78
C[C@H](O)C(=O)O [L-Lactic Acid (0.5%)],Foliage Affected (%),[1],0%
same,Overall Effect,[1],0
same,pH Value,[2],1.93
O=C([O-])c1ccccc1O.[Na+] [2% NaSalicylate],"Totals, all evaluations, All",[12]; beans + potatoes,7.5
same,"evaluation, 2 days, potatoes","[12]; potato, 2 days after application, 40 gallons/acre",1
same,"evaluation, 11 days, potatoes","[12]; potato, 11 days after application, 40 gallons/acre",1
same,"evaluation, 15 days, potatoes","[12]; potato, 15 days after application, 40 gallons/acre",1
same,"evaluation, […], potatoes","[12]; potato, […] after application, 40 gallons/acre, 6 = complete desiccation",0
same,"Totals, all evaluations, Potatoes","[12]; potato, total of 4 evaluation times",3
same,"evaluation, 2 days, beans","[12]; snapbean, 2 days after application, 40 gallons/acre",1
same,"evaluation, 11 days, beans","[12]; snapbean, 11 days after application, 40 gallons/acre",1.5
same,"evaluation, 15 days, beans","[12]; snapbean, 15 days after application, 40 gallons/acre",1
same,"evaluation, […], beans","[12]; snapbean, […] after application, 40 gallons/acre, 6 = complete desiccation",1
same,"Totals, all evaluations, Beans","[12]; snapbean, total of 4 evaluation times",4.5
"CCCCCCCCC(=O)O [4% pelargonic acid, pelargonic acid]","Total injury ratings, Total","[13]; 40 G/a, 60 G/a and spray to drip",153.4
same,"Total injury ratings, 40 G/a","[13]; 40 G/a, 9 pots/treatment, rating 1-5 per pot, 1.125% Emsorb 6900",41.6
same,"Total injury ratings, 60 G/a","[13]; 60 G/a, 10 pots/treatment",45.6
same,"Total injury ratings, Spray to drip","[13]; spray to drip, 7 pots/treatment",66.2
"N.N.O=C(O)CCC(=O)O [di-ammonium succinate (1.26%), di-ammonium succinate]","Relative injury ratings, Day #2",[4],0
same,"Relative injury ratings, Day #4",[4],0
same,"Relative injury ratings, Day #5",[4],0
same,Average rating per pot,[4],0
